Source: ChEMBL document CHEMBL1137016, “1-alkyl-8-(piperazine-1-sulfonyl)phenylxanthines: development and characterization of adenosine A2B receptor antagonists and a new radioligand with subnanomolar affinity and subtype specificity” (J Med Chem, 2009)

How the values were obtained:
Adenosine receptor A2a [1] = biological target: Adenosine receptor A2a (Homo sapiens, UniProt P29274); assay: Displacement of [3H]MSX-2 from human recombinant adenosine A2A receptor expressed in CHO cells; assay type: cell-based
Adenosine receptor A3 = biological target: T1, Adenosine receptor A3 (Homo sapiens, UniProt P0DMS8); assay: Displacement of [3H]PSB-11 from human recombinant adenosine A3 receptor expressed in CHO cells; assay type: cell-based
T1 sequence (P0DMS8 whole entry): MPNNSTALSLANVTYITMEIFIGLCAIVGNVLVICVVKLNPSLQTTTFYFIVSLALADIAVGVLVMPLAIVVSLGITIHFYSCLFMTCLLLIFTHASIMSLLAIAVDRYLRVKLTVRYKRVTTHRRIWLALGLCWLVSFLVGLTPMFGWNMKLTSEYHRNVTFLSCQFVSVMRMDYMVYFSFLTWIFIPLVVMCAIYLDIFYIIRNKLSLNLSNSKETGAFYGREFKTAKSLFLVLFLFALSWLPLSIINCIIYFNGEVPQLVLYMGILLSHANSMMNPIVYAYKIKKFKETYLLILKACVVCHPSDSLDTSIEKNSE

[2] = biological target: T2, Adenosine receptor A1 (Homo sapiens) (UniProt P30542); assay: Displacement of [3H]CCPA from human recombinant adenosine A1 receptor expressed in CHO cells at 10 uM; assay type: cell-based
T2 sequence (whole entry): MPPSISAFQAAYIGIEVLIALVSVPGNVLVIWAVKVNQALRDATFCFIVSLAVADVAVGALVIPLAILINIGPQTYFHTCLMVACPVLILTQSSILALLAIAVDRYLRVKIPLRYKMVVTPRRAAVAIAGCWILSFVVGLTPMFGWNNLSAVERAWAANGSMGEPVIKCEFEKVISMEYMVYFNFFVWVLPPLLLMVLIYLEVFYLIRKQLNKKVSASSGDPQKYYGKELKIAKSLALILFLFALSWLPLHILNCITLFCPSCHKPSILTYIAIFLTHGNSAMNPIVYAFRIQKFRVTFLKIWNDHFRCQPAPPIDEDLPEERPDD

Adenosine receptor A2a [3] = biological target: Adenosine receptor A2a (Rattus norvegicus, UniProt P30543); assay: Displacement of [3H]MSX-2 from rat brain striatum adenosine A2A receptor
[4] = biological target: T3, Adenosine receptor A3 (Homo sapiens) (UniProt P0DMS8); assay: Displacement of [3H]PSB-11 from human recombinant adenosine A3 receptor expressed in CHO cells at 10 uM; assay type: cell-based
T3 sequence (whole entry): T1 sequence (P0DMS8 whole entry)

Adenosine receptor A2b [5] = biological target: T4, Adenosine receptor A2b (Homo sapiens, UniProt P29275); assay: Antagonist activity at adenosine A2B receptor in human Jurkat T cells assessed as inhibition of NECA-induced increase in intracellular calcium concentration by fluorimetric measurement in presence of MSX-2; assay type: functional, cell-based
T4 sequence (P29275 whole entry): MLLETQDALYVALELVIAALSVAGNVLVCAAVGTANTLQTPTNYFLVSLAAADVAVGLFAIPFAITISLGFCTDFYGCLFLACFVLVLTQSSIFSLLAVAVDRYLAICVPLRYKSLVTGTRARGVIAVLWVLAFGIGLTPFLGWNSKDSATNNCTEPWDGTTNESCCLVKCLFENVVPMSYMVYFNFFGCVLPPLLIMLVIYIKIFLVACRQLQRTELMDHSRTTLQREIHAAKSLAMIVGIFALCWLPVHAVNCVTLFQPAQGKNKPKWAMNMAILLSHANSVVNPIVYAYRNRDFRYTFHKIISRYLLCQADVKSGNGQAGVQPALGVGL

Adenosine receptor A2b [6] = biological target: T4, Adenosine receptor A2b; assay: Displacement of [3H]PSB-603 from human recombinant adenosine A2B receptor expressed in CHO cells; assay type: cell-based
Adenosine receptor A1 [7] = biological target: T5, Adenosine receptor A1 (Homo sapiens, UniProt P30542); assay: Displacement of [3H]CCPA from human adenosine A1 receptor expressed in CHO cells; assay type: cell-based
T5 sequence (P30542 whole entry): T2 sequence (whole entry)

Adenosine receptor A1 [8] = biological target: T6, Adenosine receptor A1 (Rattus norvegicus, UniProt P25099); assay: Displacement of [3H]CCPA from rat brain cortex adenosine A1 receptor
T6 sequence (P25099 whole entry): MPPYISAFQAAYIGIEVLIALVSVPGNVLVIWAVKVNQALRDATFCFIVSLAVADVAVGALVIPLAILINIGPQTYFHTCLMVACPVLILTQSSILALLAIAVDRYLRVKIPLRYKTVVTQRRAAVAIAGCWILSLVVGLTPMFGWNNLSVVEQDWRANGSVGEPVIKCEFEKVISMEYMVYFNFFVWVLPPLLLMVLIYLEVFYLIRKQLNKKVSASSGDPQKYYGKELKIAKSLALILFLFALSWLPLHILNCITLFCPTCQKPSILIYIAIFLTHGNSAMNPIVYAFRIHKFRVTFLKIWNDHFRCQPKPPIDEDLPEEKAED

Homo sapiens = species: Homo sapiens; assay: Selectivity ratio of Ki for human adenosine A1 receptor to Ki for human adenosine A2B receptor
[9] = biological target: T3, Adenosine receptor A3 (Homo sapiens); assay: Displacement of [3H]PSB-11 from human recombinant adenosine A3 receptor expressed in CHO cells at 1 uM; assay type: cell-based
[10] = biological target: T7, Adenosine receptor A1 (Rattus norvegicus) (UniProt P25099); assay: Displacement of [3H]CCPA from rat brain cortex adenosine A1 receptor at 1 uM
T7 sequence (whole entry): T6 sequence (P25099 whole entry)

Adenosine receptor A2a (Homo sapiens, UniProt P29274), sequence (P29274 whole entry): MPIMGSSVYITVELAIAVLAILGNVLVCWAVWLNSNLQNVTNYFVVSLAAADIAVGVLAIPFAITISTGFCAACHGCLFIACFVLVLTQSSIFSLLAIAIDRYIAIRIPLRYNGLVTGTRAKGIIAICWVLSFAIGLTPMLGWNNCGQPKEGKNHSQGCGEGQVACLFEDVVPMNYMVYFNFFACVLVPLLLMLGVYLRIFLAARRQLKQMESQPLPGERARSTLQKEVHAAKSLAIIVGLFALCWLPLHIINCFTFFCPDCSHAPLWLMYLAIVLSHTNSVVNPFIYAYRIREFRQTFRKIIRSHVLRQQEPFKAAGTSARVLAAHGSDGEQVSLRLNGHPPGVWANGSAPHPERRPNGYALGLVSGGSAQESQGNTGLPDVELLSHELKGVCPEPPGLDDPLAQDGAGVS
Adenosine receptor A2a (Rattus norvegicus, UniProt P30543), sequence (P30543 whole entry): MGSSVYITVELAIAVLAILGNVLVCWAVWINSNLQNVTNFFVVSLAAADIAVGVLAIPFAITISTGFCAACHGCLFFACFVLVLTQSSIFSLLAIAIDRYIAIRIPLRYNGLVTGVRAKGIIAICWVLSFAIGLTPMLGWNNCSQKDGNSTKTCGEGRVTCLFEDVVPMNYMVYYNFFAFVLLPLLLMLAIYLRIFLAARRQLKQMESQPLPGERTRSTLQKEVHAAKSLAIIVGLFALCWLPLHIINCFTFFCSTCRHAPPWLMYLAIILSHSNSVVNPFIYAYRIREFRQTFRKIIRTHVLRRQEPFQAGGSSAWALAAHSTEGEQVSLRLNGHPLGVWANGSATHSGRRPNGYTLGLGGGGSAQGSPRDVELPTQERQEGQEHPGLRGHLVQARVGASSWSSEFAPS

Compound | Ki (Adenosine receptor A2a [1]) | Ki (Adenosine receptor A3) | inhibition [2] | Ki (Adenosine receptor A2a [3]) | inhibition [4] | IC50 (Adenosine receptor A2b [5]) | Ki (Adenosine receptor A2b [6]) | Ki (Adenosine receptor A1 [7]) | Ki (Adenosine receptor A1 [8]) | Ratio Ki (Homo sapiens) | inhibition [9] | inhibition [10]
CCn1c(=O)[nH]c2nc(-c3ccc(S(=O)(=O)N4CCN(Cc5ccc6c(c5)OCO6)CC4)cc3)[nH]c2c1=O | 102 nM | > 10000 nM | 28% | 436 nM | 27% | 5.34 nM | 0.875 nM | > 10000 nM | 272 nM | – | – | –
CCCn1c(=O)[nH]c2nc(-c3ccc(S(=O)(=O)N4CCN(Cc5cccc(Cl)c5)CC4)cc3)[nH]c2c1=O | 161 nM | 24200 nM | – | – | – | 1.91 nM | 0.782 nM | 1090 nM | – | – | – | –
CCCn1c(=O)[nH]c2nc(-c3ccc(S(=O)(=O)N4CCCCC4)cc3)[nH]c2c1=O | – | 140 nM | – | 714 nM | – | – | 19.7 nM | – | 91.1 nM | – | – | –
CCCn1c(=O)[nH]c2nc(-c3ccc(S(=O)(=O)NC4CCN(Cc5ccccc5)CC4)cc3)[nH]c2c1=O | 94.5 nM | 2080 nM | – | 136 nM | – | – | 3.03 nM | 1170 nM | 38.5 nM | – | – | –
CCCn1c(=O)[nH]c2nc(-c3ccc(S(=O)(=O)N4CCN(Cc5ccc(OC)cc5)CC4)cc3)[nH]c2c1=O | 328 nM | > 10000 nM | 38% | – | 32% | 16.2 nM | 0.944 nM | > 10000 nM | – | – | – | –
CCCn1c(=O)[nH]c2nc(-c3ccc(S(=O)(=O)N4CCN(Cc5cccc(C(F)(F)F)c5)CC4)cc3)[nH]c2c1=O | 306 nM | 30000 nM | – | – | – | 3.56 nM | 0.775 nM | 2610 nM | – | – | – | –
CCn1c(=O)[nH]c2nc(-c3ccc(S(=O)(=O)N4CCCCC4)cc3)[nH]c2c1=O | – | 209 nM | – | 251 nM | – | – | 5.43 nM | – | 77.1 nM | – | – | –
CCCn1c(=O)[nH]c2nc(-c3ccc(S(=O)(=O)N4CCN(Cc5ccc(Cl)cc5)CC4)cc3)[nH]c2c1=O | 333 nM | > 1000 nM | – | – | – | 3.64 nM | 0.393 nM | 2240 nM | – | 5700 | 18% | –
C#CCn1c(=O)[nH]c2nc(-c3ccc(S(=O)(=O)N4CCN(c5ccc(Cl)cc5)CC4)cc3)[nH]c2c1=O | – | > 1000 nM | – | 198 nM | – | – | 0.473 nM | – | 1440 nM | – | 35% | –
CCn1c(=O)[nH]c2nc(-c3ccc(S(=O)(=O)N4CCN(Cc5ccc(C(F)(F)F)cc5)CC4)cc3)[nH]c2c1=O | 22.7 nM | > 10000 nM | 25% | 122 nM | 13% | – | 0.157 nM | > 10000 nM | > 1000 nM | > 60000 | – | 14%
CCCn1c(=O)[nH]c2nc(-c3ccc(S(=O)(=O)N4CCN(Cc5ccc(F)cc5)CC4)cc3)[nH]c2c1=O | – | 758 nM | – | 194 nM | – | – | 0.595 nM | – | 33.8 nM | – | – | –
CCCn1c(=O)[nH]c2nc(-c3ccc(S(=O)(=O)N4CCN(Cc5ccc(C(F)(F)F)cc5)CC4)cc3)[nH]c2c1=O | 145 nM | > 10000 nM | – | – | 44% | 1.62 nM | 0.303 nM | 5630 nM | – | – | – | –
CCn1c(=O)[nH]c2nc(-c3ccc(S(=O)(=O)N4CCN(Cc5ccc(C)cc5)CC4)cc3)[nH]c2c1=O | – | > 1000 nM | – | 341 nM | – | – | 1.58 nM | – | 39 nM | – | 22% | –
CCCn1c(=O)[nH]c2nc(-c3ccc(S(=O)(=O)N4CCN(Cc5ccccc5)CC4)cc3)[nH]c2c1=O | – | – | – | – | – | – | 1.33 nM | – | – | – | – | –
